Measurements published in patent US20220356174A1, “PYRIDIN-2-ONE COMPOUNDS USEFUL AS SMARCA2 ANTAGONISTS” (Epizyme, Inc., priority 2018, published 2022).

Columns and labels:
[1] = biological target: T1, FL-SMARCA2 (full-length human SMARCA2 isoform 1) (Homo sapiens, UniProt P51531); test: SMARCA2 ATPase activity assay (ADP-Glo, chicken mononucleosome substrate); type: biochemical; conditions: Table 3.1; ATPase assay, enzyme 5 nM, ATP 250 uM, chicken mononucleosome 10 nM, 30 min preincubation
T1 construct: FLAG tag (YKDDDDK) (C); made in house; host or cells: Sf21 insect cells (baculovirus, pFastBacI)
T1 sequence (P51531 with tags, fused parts or gaps): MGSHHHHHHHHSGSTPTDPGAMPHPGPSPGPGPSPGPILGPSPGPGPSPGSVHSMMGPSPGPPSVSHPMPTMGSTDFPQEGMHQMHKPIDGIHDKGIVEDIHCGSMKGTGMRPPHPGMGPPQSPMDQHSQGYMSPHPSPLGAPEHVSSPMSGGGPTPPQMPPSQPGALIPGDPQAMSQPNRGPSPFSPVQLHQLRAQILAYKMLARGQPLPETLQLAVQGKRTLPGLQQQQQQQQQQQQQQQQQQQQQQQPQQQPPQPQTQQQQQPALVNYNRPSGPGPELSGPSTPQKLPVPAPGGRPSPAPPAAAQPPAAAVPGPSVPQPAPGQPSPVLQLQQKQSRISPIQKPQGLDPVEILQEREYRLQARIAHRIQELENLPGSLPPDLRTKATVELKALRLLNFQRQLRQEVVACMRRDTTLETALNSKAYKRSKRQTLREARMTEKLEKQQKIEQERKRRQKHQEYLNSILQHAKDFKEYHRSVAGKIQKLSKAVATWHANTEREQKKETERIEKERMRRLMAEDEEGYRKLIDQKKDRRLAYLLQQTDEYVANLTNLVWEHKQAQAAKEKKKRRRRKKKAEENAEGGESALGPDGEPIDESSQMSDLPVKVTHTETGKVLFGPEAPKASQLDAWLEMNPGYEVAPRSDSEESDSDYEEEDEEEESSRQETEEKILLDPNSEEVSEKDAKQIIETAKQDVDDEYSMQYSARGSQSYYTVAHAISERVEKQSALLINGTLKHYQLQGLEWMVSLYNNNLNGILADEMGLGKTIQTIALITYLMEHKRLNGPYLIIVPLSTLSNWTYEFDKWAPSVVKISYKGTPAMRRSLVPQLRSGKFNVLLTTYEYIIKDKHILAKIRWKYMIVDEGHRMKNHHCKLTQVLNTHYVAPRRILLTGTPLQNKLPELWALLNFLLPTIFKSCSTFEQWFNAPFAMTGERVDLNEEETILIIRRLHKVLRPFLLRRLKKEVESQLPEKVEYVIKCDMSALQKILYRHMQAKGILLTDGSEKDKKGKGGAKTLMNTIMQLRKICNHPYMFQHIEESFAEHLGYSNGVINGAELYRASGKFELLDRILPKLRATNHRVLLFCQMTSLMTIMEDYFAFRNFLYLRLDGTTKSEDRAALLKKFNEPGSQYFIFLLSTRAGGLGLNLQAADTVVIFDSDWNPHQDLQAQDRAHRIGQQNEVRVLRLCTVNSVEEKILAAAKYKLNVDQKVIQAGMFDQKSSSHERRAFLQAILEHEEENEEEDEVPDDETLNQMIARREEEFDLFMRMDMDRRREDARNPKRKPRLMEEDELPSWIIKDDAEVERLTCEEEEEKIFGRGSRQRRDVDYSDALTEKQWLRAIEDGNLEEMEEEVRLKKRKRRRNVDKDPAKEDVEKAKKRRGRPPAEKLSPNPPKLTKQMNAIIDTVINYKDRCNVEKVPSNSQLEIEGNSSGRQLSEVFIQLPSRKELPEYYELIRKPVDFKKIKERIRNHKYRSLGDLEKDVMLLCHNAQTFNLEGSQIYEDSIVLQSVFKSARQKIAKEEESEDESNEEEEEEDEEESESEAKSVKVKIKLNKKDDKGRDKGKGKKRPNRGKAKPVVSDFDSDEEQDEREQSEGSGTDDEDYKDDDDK

A549 cells = test: High-throughput proliferation (HTP) assay for A549 cells (CellTiter-Glo, 7 days); type: cell-based; conditions: Homo sapiens, 168 h, read-out: A549 SMARCA2 IC50
Protocol: Thawing vials: A549 cells (ATCC #CCL-185™) were thawed from a cryovial containing approximately 1.6×10^6 cells frozen in 70% F12K medium, 20% HI-FBS and 10% DMSO. Cells were thawed by submerging the bottom half of the vial in a 37° C. water bath and gently flicked until almost thawed. The cells were transferred into a 15 mL conical tube containing 9 mL of F12K medium+10% HI-FBS and then centrifuged at 200×g for 4 min before drawing off the media without disturbing the cell pellet in order to remove the DMSO. The cells were resuspended again in 15 mL of F12K fresh complete media+10% HI-FBS and grown up in a T75 flask at 37° C. with 5% CO2 Incubator. Viability was measured to obtain baseline.
Frozen stock vials preparation: The cell culture was transferred to a 50 mL conical tube, spun down to remove medium, and resuspended at 1-2×10^6 cells/mL in complete medium containing 10% DMSO. The culture was then stored for 24 hours at −80 degree C., (with the initial rate of freezing is −1 degree C. per minute in a freezing container), then transferred and stored in liquid nitrogen.
Routine subculture: Sub-confluent cultures (70-80%) were split every 4 days, seeding out at 1-2×10^6 cells/75 cm^2.
Day 0: Assay ready plates were prepared by dispensing 50 nL of compound or DMSO in the appropriate wells of 384-well white CulturPlates using Echo550. Using the Multiflo, A549 cells were plated at 50 μL/well in F12K complete media+10% HI-FBS+1% pen/strep at cell density determined [1,250 cells/mL (62.5 cells/well)] from growth curve.
Treated cells were incubated at 37° C., 5% CO2, relative humidity >90% for 7 days. CellTiter-Glo (CTG) ATP detection reagent was prepared according to manufacturer's specifications. Cell assay plates were removed from the incubator and brought to room temperature (RT). Using the MultiDrop liquid handler, 30 μL of CTG were added per well. Plates were placed on the multidrop dispenser shake for 5 seconds at room temperature (RT). Plates were incubated for 30 minutes in the dark at RT before measuring luminescence using the Envison2104.
Data analysis: Using the DMSO control wells as the 0% inhibition (high signal) control and the 10 μM Doxorubicin control wells as the 100% inhibition (low signal) control, percent inhibition EC50s (inflection point) and IC50 s were calculated for the compound dose responses.

FL-SMARCA4 = FL-SMARCA4 (Homo sapiens, UniProt P51532); test: SMARCA4 ATPase activity assay (ADP-Glo, chicken mononucleosome substrate); conditions: FL-SMARCA4 IC50, Table 3.2; ATPase assay, enzyme 5 nM, ATP 250 uM, chicken mononucleosome 10 nM, 30 min preincubation
Chain of FL-SMARCA4 (P51532 whole entry): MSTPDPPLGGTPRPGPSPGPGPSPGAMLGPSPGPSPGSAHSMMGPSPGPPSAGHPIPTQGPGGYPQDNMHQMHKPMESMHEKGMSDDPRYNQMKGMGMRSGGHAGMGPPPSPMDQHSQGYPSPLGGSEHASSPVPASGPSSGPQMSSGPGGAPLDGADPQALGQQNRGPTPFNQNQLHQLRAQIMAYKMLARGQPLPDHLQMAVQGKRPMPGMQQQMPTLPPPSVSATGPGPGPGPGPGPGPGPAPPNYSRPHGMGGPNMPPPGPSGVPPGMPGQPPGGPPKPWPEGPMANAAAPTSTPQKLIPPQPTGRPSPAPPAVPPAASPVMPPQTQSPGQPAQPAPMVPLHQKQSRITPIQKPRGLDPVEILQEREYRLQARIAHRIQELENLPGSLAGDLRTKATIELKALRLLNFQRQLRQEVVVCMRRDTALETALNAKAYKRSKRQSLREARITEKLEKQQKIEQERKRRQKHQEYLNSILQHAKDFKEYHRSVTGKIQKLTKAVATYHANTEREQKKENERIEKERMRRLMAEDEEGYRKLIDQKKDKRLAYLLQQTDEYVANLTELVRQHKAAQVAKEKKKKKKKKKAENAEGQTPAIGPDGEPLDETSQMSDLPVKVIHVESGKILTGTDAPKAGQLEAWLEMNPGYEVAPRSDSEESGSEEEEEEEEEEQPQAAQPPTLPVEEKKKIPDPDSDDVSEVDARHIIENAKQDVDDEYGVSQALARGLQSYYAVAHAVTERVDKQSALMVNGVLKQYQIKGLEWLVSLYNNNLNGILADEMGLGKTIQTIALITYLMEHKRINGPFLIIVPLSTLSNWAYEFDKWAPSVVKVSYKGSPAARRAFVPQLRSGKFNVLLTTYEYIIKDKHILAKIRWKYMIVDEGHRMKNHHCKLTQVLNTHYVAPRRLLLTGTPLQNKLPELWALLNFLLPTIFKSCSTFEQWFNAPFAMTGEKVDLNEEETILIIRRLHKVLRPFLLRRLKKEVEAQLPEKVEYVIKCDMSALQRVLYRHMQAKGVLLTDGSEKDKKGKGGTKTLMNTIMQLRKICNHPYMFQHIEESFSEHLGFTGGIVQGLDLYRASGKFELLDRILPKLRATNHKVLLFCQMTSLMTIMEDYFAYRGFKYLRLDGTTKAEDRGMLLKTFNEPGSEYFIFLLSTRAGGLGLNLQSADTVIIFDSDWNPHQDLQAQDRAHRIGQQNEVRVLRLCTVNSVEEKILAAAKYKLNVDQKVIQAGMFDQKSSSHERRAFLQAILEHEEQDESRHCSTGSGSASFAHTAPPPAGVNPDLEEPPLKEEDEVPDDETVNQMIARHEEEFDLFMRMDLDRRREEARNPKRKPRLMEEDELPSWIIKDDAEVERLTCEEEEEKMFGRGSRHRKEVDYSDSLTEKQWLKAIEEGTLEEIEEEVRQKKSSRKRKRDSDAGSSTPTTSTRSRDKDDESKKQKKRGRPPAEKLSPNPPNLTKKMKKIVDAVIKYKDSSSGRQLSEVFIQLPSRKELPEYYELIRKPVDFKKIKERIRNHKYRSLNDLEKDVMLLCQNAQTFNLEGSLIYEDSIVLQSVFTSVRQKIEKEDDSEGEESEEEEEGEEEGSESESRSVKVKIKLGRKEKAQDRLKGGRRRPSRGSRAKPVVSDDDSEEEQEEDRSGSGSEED

IC50 [1] | IC50 (A549 cells) | IC50 (FL-SMARCA4) | Compound
> 50 µM | > 10 µM | > 50 µM | CS(=O)(=O)c1csc(C(=O)Nc2cc(F)c(=O)n(CCF)c2)c1 [Compound 302]
> 50 µM |  | > 50 µM | NC(=O)c1ccc(C(=O)Nc2cc(F)c(=O)n(CCF)c2)s1 [Compound 303]
> 50 µM |  | > 50 µM | CNC(=O)c1ccc(C(=O)Nc2cc(F)c(=O)n(CCF)c2)s1 [Compound 304]
> 50 µM |  | > 50 µM | CNC(=O)c1cc(C(=O)Nc2cc(F)c(=O)n(CCF)c2)sc1C(F)(F)F [Compound 305]
> 50 µM |  | > 50 µM | CN(C)C(=O)c1ccc(C(=O)Nc2cc(F)c(=O)n(CCF)c2)s1 [Compound 306]
0.94 µM |  | 3.27 µM | CS(=O)(=O)c1cc(C(=O)Nc2cc(F)c(=O)n(CCF)c2)sc1Cl [Compound 307]
23.3 µM |  | > 50 µM | O=C(Nc1cc(F)c(=O)n(CCF)c1)c1cc(CO)c(Cl)s1 [Compound 308]
29.6 µM |  | > 50 µM | NS(=O)(=O)c1sc(C(=O)Nc2cc(F)c(=O)n(CCF)c2)cc1Cl [Compound 309]
> 50 µM |  | > 50 µM | NS(=O)(=O)c1cc(C(=O)Nc2cc(F)c(=O)n(CCF)c2)sc1Cl [Compound 310]
> 50 µM |  | > 50 µM | Cn1cnc(-c2ccc(C(=O)Nc3cc(F)c(=O)n(CCF)c3)s2)c1 [Compound 311]
> 50 µM |  | > 50 µM | O=C(Nc1cc(F)c(=O)n(CCF)c1)c1ccc(-c2ccn[nH]2)s1 [Compound 312]
> 50 µM |  | > 50 µM | O=C(Nc1cc(F)c(=O)n(CCF)c1)c1ccc(-c2cccnc2)s1 [Compound 313]
> 50 µM |  | > 50 µM | O=C(Nc1cc(F)c(=O)n(CCF)c1)c1ccc(-c2ccncc2)s1 [Compound 314]
> 50 µM |  | > 50 µM | CC(=O)Nc1sc(C(=O)Nc2cc(F)c(=O)n(CCF)c2)cc1Cl [Compound 315]
> 50 µM |  | > 50 µM | Cn1ccnc1-c1ccc(C(=O)Nc2cc(F)c(=O)n(CCF)c2)s1 [Compound 316]
> 50 µM |  | > 50 µM | O=C(Nc1cc(F)c(=O)n(CCF)c1)c1ccc(-c2nccs2)s1 [Compound 317]
2.88 µM |  | 13.5 µM | O=C(Nc1cc(F)c(=O)n(CC(F)F)c1)c1cc(-c2nnco2)c(Cl)s1 [Compound 318]
1.32 µM |  | 16.6 µM | O=C(Nc1cc(F)c(=O)n(CCF)c1)c1cc(Cl)c(CC(F)(F)F)s1 [Compound 319]
0.151 µM |  | 0.562 µM | N#Cc1cc(C(=O)Nc2ccc(=O)n(CC(F)F)c2)sc1Cl [Compound 320]
> 50 µM |  | > 50 µM | O=C(Nc1cc(F)c(=O)n(CCF)c1)c1ccc(C(F)(F)CO)s1 [Compound 322]
3.78 µM |  | 17.2 µM | O=C(Nc1cc(F)c(=O)n(CC(F)F)c1)c1cc(Cl)no1 [Compound 326]
0.0384 µM |  | 0.108 µM | O=C(Nc1cc(F)c(=O)n(CCF)c1)c1cc(C#Cc2cccnc2)c(Cl)s1 [Compound 328]
0.0312 µM |  | 0.111 µM | O=C(Nc1cc(F)c(=O)n(CC(F)F)c1)c1cc(C#Cc2cccnc2)c(Cl)s1 [Compound 329]
0.172 µM |  | 0.924 µM | CC(F)Cn1cc(NC(=O)c2cc(Cl)c(C(F)(F)F)s2)cc(F)c1=O (centres unmarked) [Compound 331]
0.331 µM |  | 2.2 µM | Nc1c(C(=O)Nc2cc(F)c(=O)n(CC(F)F)c2)sc(Cl)c1Cl [Compound 332]
0.182 µM |  | 0.337 µM | CCn1cc(NC(=O)c2cc(C#Cc3ccncc3)c(Cl)s2)ccc1=O [Compound 334]
7.46 µM |  | 45.1 µM | CNc1c(C(=O)Nc2cc(F)c(=O)n(CC(F)F)c2)sc(Cl)c1Cl [Compound 335]
0.668 µM |  | 9.28 µM | CSc1cc(C(=O)Nc2cc(F)c(=O)n(CC(F)F)c2)sc1Cl [Compound 341]

Further lines, the compound ahead of its results:

Compound | IC50 [1] | IC50 (A549 cells) | IC50 (FL-SMARCA4)
N#Cc1cc(C(=O)Nc2ccc(=O)n(CCF)c2)sc1C#N [Compound 182] | 0.0355 µM | ≥ 20 µM | 0.127 µM
N#Cc1ncc(C(=O)Nc2cc(C#N)c(=O)n(CCF)c2)s1 [Compound 203] | 0.0407 µM | ≥ 20 µM | 0.118 µM
N#Cc1cc(C(=O)Nc2cc(F)c(=O)n(CC(F)(F)F)c2)sc1Cl [Compound 207] | 0.0729 µM | 0.892 µM | 0.342 µM
Cn1c(C(=O)Nc2cc(F)c(=O)n(CCF)c2)cnc1C#N [Compound 220] | 0.488 µM | ≥ 20 µM | 1.93 µM
Cc1ncc(C(=O)Nc2cc(F)c(=O)n(CCF)c2)s1 [Compound 222] | 1.31 µM | ≥ 20 µM | 10.2 µM
COc1ncc(C(=O)Nc2cc(F)c(=O)n(CCF)c2)s1 [Compound 223] | 18.4 µM | ≥ 20 µM | > 50 µM
N#Cc1[nH]c(C(=O)Nc2ccc(=O)n(CCF)c2)cc1Cl [Compound 231] | 0.142 µM | ≥ 20 µM | 0.544 µM
N#Cc1[nH]c(C(=O)Nc2cc(F)c(=O)n(CCF)c2)cc1Cl [Compound 232] | 0.0249 µM | 15.5 µM | 0.111 µM
N#Cc1[nH]c(C(=O)Nc2ccc(=O)n(CC(F)(F)F)c2)cc1Cl [Compound 234] | 0.478 µM | ≥ 20 µM | 1.74 µM
CCn1cc(NC(=O)c2cc(Cl)c(C#N)[nH]2)cc(F)c1=O [Compound 235] | 0.0591 µM | ≥ 20 µM | 0.272 µM
CCn1cc(NC(=O)c2cc(Cl)c(C#N)[nH]2)cc(Cl)c1=O [Compound 236] | 0.125 µM | ≥ 20 µM | 0.555 µM
N#Cc1[nH]c(C(=O)Nc2cc(Cl)c(=O)n(CC(F)(F)F)c2)cc1Cl [Compound 237] | 0.201 µM | ≥ 20 µM | 0.863 µM
N#Cc1[nH]c(C(=O)Nc2cc(C#N)c(=O)n(CCF)c2)cc1Cl [Compound 238] | 0.232 µM | 7.27 µM | 0.879 µM
N#Cc1cc(C(=O)Nc2cc(Cl)c(=O)n(CCF)c2)[nH]c1Cl [Compound 240] | 0.626 µM | ≥ 20 µM | 2.39 µM
N#Cc1[nH]c(C(=O)Nc2cc(F)c(=O)n(CC(F)(F)F)c2)cc1Cl [Compound 242] | 0.0389 µM | 17.4 µM | 0.168 µM
O=C(Nc1cc(F)c(=O)n(CCF)c1)c1cc(Cl)c(F)s1 [Compound 251] | 0.131 µM | 5.46 µM | 0.623 µM
O=C(Nc1cc(F)c(=O)n(CCF)c1)c1cnc([N+](=O)[O-])s1 [Compound 275] | 0.381 µM | ≥ 20 µM | 2.1 µM
CS(=O)(=O)c1ccc(C(=O)Nc2cc(F)c(=O)n(CCF)c2)s1 [Compound 288] | > 50 µM |  | > 50 µM
O=C(Nc1cc(F)c(=O)n(CCF)c1)c1cc(Cl)c(C(O)C(F)(F)F)s1 (centres unmarked) [Compound 289] | 10.6 µM |  | 42.6 µM
CNC(=O)c1cc(C(=O)Nc2cc(F)c(=O)n(CCF)c2)sc1Cl [Compound 291] | > 50 µM |  | > 50 µM
CCn1cc(NC(=O)c2cc(C#CCN)c(Cl)s2)ccc1=O [Compound 292] | 6.83 µM |  | 8.48 µM
N#Cc1sc(C(=O)Nc2ccc(=O)n(CC(F)F)c2)cc1Cl [Compound 293] | 0.127 µM |  | 0.3 µM
N#Cc1[nH]c(C(=O)Nc2ccc(=O)n(CC(F)F)c2)cc1Cl [Compound 294] | 0.117 µM |  | 0.387 µM
O=C(Nc1cc(F)c(=O)n(CC(F)F)c1)c1cc(Cl)c(C(F)F)s1 [Compound 296] | 0.094 µM |  | 0.52 µM
CN(C)C(=O)c1cc(C(=O)Nc2cc(F)c(=O)n(CCF)c2)sc1Cl [Compound 299] | > 50 µM |  | > 50 µM
CCn1cc(NC(=O)c2cc(C#CCO)c(Cl)s2)ccc1=O [Compound 300] | 2.74 µM |  | 5.96 µM
CS(=O)(=O)c1sc(C(=O)Nc2cc(F)c(=O)n(CCF)c2)cc1Cl [Compound 301] | 16.7 µM |  | > 50 µM
